Assay results taken from patent US20080201871A1, “ANTIMICROBIAL COLORANTS” (The Regents of the University of California, priority 2003, published 2008).

How the values were obtained:
E. coli [1] = assay: Antimicrobial efficacy (log reduction) at fixed concentration and contact time; assay type: cell-based, Escherichia coli; details: E. coli 10^7~10^8 CFU/ml; for Antimicrobial Efficacy (log reduction): 10 ppm
[2] = tested on: Escherichia coli (E. coli, K-12, Gram-negative); assay: Minimum inhibitory concentration (MIC) procedure in aqueous solution; assay type: cell-based; details: 10^7~10^8 CFU/mL, contact time: 24 hr, MIC = minimum concentration giving more than 4 log reductions
Experimental: (§1) Antimicrobial activity of the agents in aqueous solution was evaluated by a minimum inhibitory concentration (MIC) procedure ([…]. et al., Pharm. Sci., 65(12):1737 (1976)). MIC refers to the lowest concentration of biocides that prohibit population and reproduction of microorganisms. […] Antimicrobial properties of the antimicrobial colorants in aqueous solutions were measured by the MIC procedure.

[3] = tested on: Staphylococcus aureus (S. aureus, ATCC #12600, Gram-positive); assay: as above; assay type: cell-based; details: 10^7~10^8 CFU/mL, contact time: 24 hr, MIC = minimum concentration giving more than 4 log reductions
Experimental: as §1

E. coli [4] = assay: Antimicrobial efficacy (log reduction) at fixed concentration and contact time; assay type: cell-based, Escherichia coli; details: for Antimicrobial efficacy (Log reduction): contact time 1 minute; for Antimicrobial efficacy (Log reduction) / Antimicrobial Efficacy (log reduction): 10 ppm
Experimental: Antimicrobial activity of the agents in aqueous solution was evaluated by a minimum inhibitory concentration (MIC) procedure (Kaminski, J. J., Hyycke, N. M. et al., Pharm. Sci., 65(12):1737 (1976)). MIC refers to the lowest concentration of biocides that prohibit population and reproduction of microorganisms. In this method, 1 mL of an aqueous suspension containing 10^6˜10^7 colony-forming units (CFU)/mL of Staphylococcus aureus (S. aureus, ATCC #12600, Gram-positive) or Escherichia coli (E. coli, K-12, Gram-negative) were placed into 9 mL aqueous solutions containing different concentrations of the agents for a contact time of 24 hours. After the contact, a 100 μL aliquot of the resultant solution was serially diluted by sterilized distilled water to 10^1, 10^2, 10^3, 10^4 and 10^5. 100 μL of the last four dilutions were placed onto a nutrient agar plate and incubated at 37° C. for 24 hours. The same procedure was applied to a distilled water solution without the antimicrobial agents as a control. In this paper, the reported MIC of the antimicrobial colorants is the minimum concentrations that can eliminate more than 4 log reductions of bacteria (1 log reduction is 90%, 2 log reduction is 99%, and so forth).
To better study the biocidal rate of these colorants, the antimicrobial efficacy of the colorants in terms of log reduction is assessed against E. Coli under different contact time ranging from 15 minutes to 24 hours.
Next, the antimicrobial efficacy of the colorants is further challenged by reducing the contact time down to 1 minute at the concentration of 10 ppm.

S. aureus = assay: as above; assay type: cell-based, Staphylococcus aureus; details: contact time 1 minute, 10 ppm
[5] = Stability study of colorant solutions by UV-vis absorbance; assay type: physicochemical; details: 100 ppm aqueous; 100° C. for 4 hours
Experimental: The stability of the antimicrobial colorants was qualitatively studied by using a UV-vis spectrophotometer under different experimental conditions. The tests were performed with antimicrobial colorant solutions at the concentration of 100 ppm in flasks. The colorants were sampled and the absorbance at the maximum absorption wavelength was tested before treatment as a reference. After visible light exposure in a conditioning room for over 30 days, or heating at boiling for 4 hours, or changing to different pH conditions (pH=4 and 10) for over 24 hours, the solutions were sampled, centrifuged, filtered and tested by UV. The new UV-vis spectra were taken and compared with the control.
The stability of the antimicrobial colorants is of great importance because they are mostly applied in aqueous solutions as biocides or dyes. All stability tests were conducted at a concentration of 100 ppm.
In practical applications, these colorants could be used under either acidic or basic conditions, particularly in coloration of acrylics, nylon and wool. For example, acidic dye bath is preferred for dyeing wool fabrics. Thus, the stability of the colorants in low or high pH solution is more important for textile applications. […] The low stability of those colorants was caused by hydrolysis of an amide linkage between QAS and aminoanthraquinone. […]

## CCCCCCCCCCCCCCCC[N+](C)(C)Cc1ccccc1.[Cl-] [Benzalkonium chloride, Benzyldimethyl-hexadecylammonium chloride, reference compound]
E. coli [1]
  Antimicrobial Efficacy (log reduction): 2 log reduction

## CCCCCCCCCCCCCCCC[N+](C)(C)CC(O)CNc1ccc(NCC(O)C[N+](C)(C)CCCCCCCCCCCCCCCC)c2c1C(=O)c1ccccc1C2=O.[Cl-].[Cl-] (centres unmarked) [Di-16]
[2]
  MIC of cationic colorants: 60 ppm
[3]
  MIC of cationic colorants: 60 ppm
E. coli [4]
  Antimicrobial efficacy (Log reduction): 0 Log reduction
S. aureus
  Antimicrobial efficacy (Log reduction): 0 Log reduction

## CCCCCCCCCCCCCCCC[N+](C)(C)C.[Br-] [CTAB, Cetyltrimethyl ammonium bromide, reference compound]
E. coli [1]
  Antimicrobial Efficacy (log reduction): 0 log reduction

## CCCCCCCC[N+](C)(C)CC(O)CNc1ccc(NCC(O)C[N+](C)(C)CCCCCCCC)c2c1C(=O)c1ccccc1C2=O.[Cl-].[Cl-] (centres unmarked) [Di-8]
[2]
  MIC of cationic colorants: 5 ppm
[3]
  MIC of cationic colorants: 5 ppm
E. coli [1]; 5 ppm, contact time 1 minute
  Log reduction: 1 Log reduction
E. coli [4]; contact time 0.25 hr
  Antimicrobial Efficacy (log reduction): >4 log reduction
E. coli [4]; contact time 0.5 hr
  Antimicrobial Efficacy (log reduction): >4 log reduction
E. coli [4]; contact time 1 hr
  Antimicrobial Efficacy (log reduction): >4 log reduction
E. coli [4]; contact time 2 hr
  Antimicrobial Efficacy (log reduction): >4 log reduction
E. coli [4]; contact time 4 hr
  Antimicrobial Efficacy (log reduction): >4 log reduction
E. coli [4]; contact time 8 hr
  Antimicrobial Efficacy (log reduction): >4 log reduction
E. coli [4]; contact time 16 hr
  Antimicrobial Efficacy (log reduction): >4 log reduction
E. coli [4]; contact time 24 hr
  Antimicrobial Efficacy (log reduction): >4 log reduction

## CCCCCCCCCCCC[N+](C)(C)CC(O)CNc1ccc(NCC(O)C[N+](C)(C)CCCCCCCCCCCC)c2c1C(=O)c1ccccc1C2=O.[Cl-].[Cl-] (centres unmarked) [Di-12]
[2]
  MIC of cationic colorants: 4 ppm
[3]
  MIC of cationic colorants: 4 ppm
[5]
  Change of UV-vis absorbance after heating: slight increases in absorbance
  Change of UV-vis wavelength after heating: negligible change
E. coli [1]
  Antimicrobial Efficacy (log reduction): >5 log reduction
E. coli [4]; Table 6 conditions
  Biocidal activity compared with CTAB, CPC and Benzalkonium chloride: more efficient in biocidal activity than the other three bactericides
E. coli [4]; contact time 0.25 hr
  Antimicrobial Efficacy (log reduction): >4 log reduction
E. coli [4]; contact time 0.5 hr
  Antimicrobial Efficacy (log reduction): >4 log reduction
E. coli [4]; contact time 1 hr
  Antimicrobial Efficacy (log reduction): >4 log reduction
E. coli [4]; contact time 2 hr
  Antimicrobial Efficacy (log reduction): >4 log reduction
E. coli [4]; contact time 4 hr
  Antimicrobial Efficacy (log reduction): >4 log reduction
E. coli [4]; contact time 8 hr
  Antimicrobial Efficacy (log reduction): >4 log reduction
E. coli [4]; contact time 16 hr
  Antimicrobial Efficacy (log reduction): >4 log reduction
E. coli [4]; contact time 24 hr
  Antimicrobial Efficacy (log reduction): >4 log reduction

## CCCC[N+](C)(C)CC(O)CNc1ccc(NCC(O)C[N+](C)(C)CCCC)c2c1C(=O)c1ccccc1C2=O.[Cl-].[Cl-] (centres unmarked) [Di-4]
[2]
  MIC of cationic colorants: 200 ppm
[3]
  MIC of cationic colorants: 200 ppm
E. coli [4]
  Antimicrobial efficacy (Log reduction): 0 Log reduction
E. coli [4]; contact time 0.25 hr
  Antimicrobial Efficacy (log reduction): 0 log reduction
E. coli [4]; contact time 0.5 hr
  Antimicrobial Efficacy (log reduction): 0 log reduction
E. coli [4]; contact time 1 hr
  Antimicrobial Efficacy (log reduction): 0 log reduction
E. coli [4]; contact time 2 hr
  Antimicrobial Efficacy (log reduction): 0 log reduction
E. coli [4]; contact time 4 hr
  Antimicrobial Efficacy (log reduction): 0 log reduction
E. coli [4]; contact time 8 hr
  Antimicrobial Efficacy (log reduction): 0 log reduction
E. coli [4]; contact time 16 hr
  Antimicrobial Efficacy (log reduction): 0 log reduction
E. coli [4]; contact time 24 hr
  Antimicrobial Efficacy (log reduction): 0 log reduction
S. aureus
  Antimicrobial efficacy (Log reduction): 0 Log reduction

## CCCCCCCCCCCCCCCC[N+](C)(C)CC(O)CNc1cccc2c1C(=O)c1ccccc1C2=O.[Cl-] (centres unmarked) [Compound M-16]
[2]
  MIC of cationic colorants: 60 ppm
[3]
  MIC of cationic colorants: 60 ppm
E. coli [4]
  Antimicrobial efficacy (Log reduction): 0 Log reduction
S. aureus
  Antimicrobial efficacy (Log reduction): 0 Log reduction
